Laboratory results reported in ChEMBL document CHEMBL1122541, “Peptide sweeteners. 7. Taste relationships of trifluoroacetyl-L-aspartylanilides” (J Med Chem, 1984).

Key:
[1] = Compound taste was tested with reference of sucrose sweetness; +/- = Sweet/bitter
[2] = Compound taste was tested with reference of sucrose sweetness; + / - = Sweet/bitter
[3] = Compound taste was tested with reference of sucrose sweetness; - = Bitter
[4] = compound taste was tested with reference of sucrose sweetness; + / - - = sweet / bitter
[5] = Compound taste was tested with reference of sucrose sweetness; +/ - - = Sweet/ very bitter
[6] = Value represents the number of times the compound was as sweet as sucrose
[7] = Value represents the number of times the compound was as sweet as sucrose; +/- - - = Sweet/ very bitter
[8] = Value represents the number of times the compound was as sweet as sucrose.
[9] = Compound taste was tested with reference of sucrose sweetness; + / - = Sweet/ bitter
[10] = Compound taste was tested with reference of sucrose sweetness; + / - - = Sweet/very bitter
[11] = compound taste was tested with reference of sucrose sweetness; - = bitter

SMILES: N#Cc1cccc(NC(=O)C(CC(=O)O)NC(=O)C(F)(F)F)c1 (centres undefined)
- Taste [1]: +/-

SMILES: O=C(O)CC(NC(=O)C(F)(F)F)C(=O)Nc1cccc(Cl)c1 (centres undefined)
- Taste [2]: + / -

SMILES: O=C(O)CC(NC(=O)C(F)(F)F)C(=O)Nc1ccccc1Cl (centres undefined)
- Taste [3]: Bitter

SMILES: Cc1cc([N+](=O)[O-])ccc1NC(=O)C(CC(=O)O)NC(=O)C(F)(F)F (centres undefined)
- Taste [4]: + / - -

SMILES: N#Cc1ccccc1NC(=O)C(CC(=O)O)NC(=O)C(F)(F)F (centres undefined)
- Taste [3]: Bitter

SMILES: O=C(O)CC(NC(=O)C(F)(F)F)C(=O)Nc1ccc([N+](=O)[O-])c([N+](=O)[O-])c1 (centres undefined)
- Taste [5]: + / - -

SMILES: N#Cc1ccc(NC(=O)C(CC(=O)O)NC(=O)C(F)(F)F)cc1 (centres undefined)
- Taste [6]: 3000

SMILES: O=C(O)CC(NC(=O)C(F)(F)F)C(=O)Nc1cccc([N+](=O)[O-])c1 (centres undefined)
- Taste [7]: +/- - -

SMILES: O=C(O)CC(NC(=O)C(F)(F)F)C(=O)Nc1ccccc1 (centres undefined)
- Taste [6]: 12

SMILES: O=C(O)CC(NC(=O)C(F)(F)F)C(=O)Nc1ccc([N+](=O)[O-])cc1 (centres undefined)
- Taste [8]: 1500

SMILES: Cc1cccc(NC(=O)C(CC(=O)O)NC(=O)C(F)(F)F)c1 (centres undefined)
- Taste [9]: + / -

SMILES: Cc1cc(NC(=O)C(CC(=O)O)NC(=O)C(F)(F)F)ccc1[N+](=O)[O-] (centres undefined)
- Taste [10]: + / - -

SMILES: O=C(O)CC(NC(=O)C(F)(F)F)C(=O)Nc1ccc(Cl)cc1 (centres undefined)
- Taste [6]: 120

SMILES: O=C(O)CC(NC(=O)C(F)(F)F)C(=O)Nc1ccccc1[N+](=O)[O-] (centres undefined)
- Taste [11]: Bitter
